From patent US20070025914A1, “Bronchioalveolar stem cells and uses thereof” (priority 2005, published 2007)
Values joined by “and” are separate entries in the source; they are usually repeats but may differ in a detail not shown here. Equal values may be shown once.

Columns and labels:
BASCs [1] = experiment: BASC incidence after intranasal bleomycin; type: in vivo, mouse
Protocol: Bleomycin is administered intranasally, and at various time points after treatment, the incidence of BASCs is determined.

BASCs [2] = experiment: BrdU proliferation at the BADJ after naphthalene; type: in vivo, mouse; conditions: all SP-Cpos CCApos
AT2 cells = experiment: AdGFP infection followed by IF for SP-C or CCA after naphthalene; type: in vivo, mouse; conditions: 24 hr after AdGFP; control 7.8%; no significant increase
Source text: FIG. 7A). An even greater impact on tumor area was associated with naphthalene treatment; adenomas comprised a 6-, 12-, and 15-fold greater proportion of total lung area when initiated after airway damage in the three experiments (p=0.009; FIG. 7B).

Lox-K-ras lung tumors = experiment: Naphthalene treatment before AdCre in LSL-K-ras G12D mice: tumor number and area; type: in vivo, mouse; conditions: 6 weeks, three independent experiments, p=0.04
Protocol: We reasoned that the cellular requirements for adenocarcinoma formation could be dissected further by combining K-ras G12D activation with naphthalene treatment, which stimulates proliferation of BASCs in vivo (see FIG. 2). LSL-K-ras G12D mice and wild-type controls were treated with naphthalene; tumorigenesis was initiated by administering AdCre 24 hr to 3 days later, and mice were euthanized after 6 weeks to determine tumor incidence and size.
An even greater impact on tumor area was associated with naphthalene treatment; adenomas comprised a 6-, 12-, and 15-fold greater proportion of total lung area when initiated after airway damage in the three experiments (p=0.009; FIG. 7B).

BASCs [3] = experiment: BASC number per terminal bronchiole by dual IF for CCA and SP-C after naphthalene treatment
Protocol: To determine if airway damage affects BASCs, dual IF for CCA and SP-C is performed at various time points after naphthalene treatment. […] BrdU administered prior to euthanasia is used to determine if BASCs proliferate in response to naphthalene.
Lox-stop-lox K-ras G12D mice (Jackson et al. (2001) Genes Dev. 15, 3243-3248) and wild-type littermates were maintained in viral-free conditions on an F1 129 SvJ/C57BI6 background. Four- to eight-week-old mice were used for FACS or intranasal infections as described (Jackson et al. (2001) Genes Dev. 15, 3243-3248). Naphthalene (Aldrich) was dissolved in MAZOLA corn oil and injected i.p. at 275 mg/kg using sex- and background-matched control mice. […] 30 mg/kg BrdU in PBS was injected i.p. 2 hr before euthanasia for proliferation studies. Tissue preparation was as described (Jackson et al., 2001, supra). BASCs were quantified by scoring sections from at least three mice for each condition.

[4] = tested on: BASCs (Sca-1pos CD45neg Pecamneg cells); experiment: FACS analysis of BASC abundance after naphthalene treatment; type: in vivo, mouse

Molecule	BASC distribution (BASCs [1]; 7 days after bleomycin)	BASC numbers (BASCs [1]; 14 days after bleomycin, p=0.01)	BASC distribution (BASCs [1]; 28 days after bleomycin)	time at which BrdUpos cells are first detected in the BADJ (BASCs [2]) [h]	infected (GFPpos) cells that were SP-Cpos (AT2 cells) [%]	fold more tumors vs controls (corn oil, AdCre) (Lox-K-ras lung tumors)	terminal bronchioles with two or more BASCs (BASCs [3]; 1 week after naphthalene 275 mg/kg i.p., controls 16%±5%, p=0.03)	number of BASCs after naphthalene (BASCs [3]; any time point after naphthalene)	Clara cell loss (BASCs [3]; by 52 hr after naphthalene)	number of BASCs per BADJ (BASCs [3]; six to seven weeks after naphthalene)	abundance of BASCs, fold increase vs corn oil control ([4]; 1 week after treatment, p=0.04) [fold]	abundance of BASCs ([4]; 24 hr after naphthalene)
Bleomycin	significantly different neither	Significant increases	significantly different neither									
c1ccc2ccccc2c1 [naphthalene, Naphthalene]				52	10.5	1.3 fold and 2.2 fold and 2.3 fold	30%±9%	did not significantly decrease	significant Clara cell loss	comparable to that in untreated lung	1.3	did not change
